These are literature values, as cited in PMC4364779, “IMD-4690, a Novel Specific Inhibitor for Plasminogen Activator Inhibitor-1, Reduces Allergic Airway Remodeling in a Mouse Model of Chronic Asthma via Regulating Angiogenesis and Remodeling-Related Mediators” (PLoS ONE, 2015).

Structures are written as SMILES.

The test system of this data set is murine model of chronic asthma. On the set-up: method as in PMID 22323366. The following applies: cited from earlier work.

Turning to `O=C(O)C(=O)c1cn(Cc2ccccc2)c2ccc(-c3ccc(OC(F)(F)F)cc3)cc12` [tiplaxtinin], the “Allergic airway inflammation and lung collagen deposition” value is “attenuated”.
